# PMC9157788, “Design, Synthesis, and Apoptosis-Promoting Effect Evaluation of Rhopaladins’ Analog 4-Arylidene-5-Oxopyrrolidine Derivatives” (Frontiers in Chemistry, 2022)
# Experiments:
# SiHa cells = test: MTT cell viability assay, SiHa; assay type: cell-based; conditions: Homo sapiens, 48 h, read-out: Half inhibitory concentration (IC50), SiHa
# Procedure: (§1) HepG2 (human epidermoid hepatocellular carcinoma cell), 7402 (human epidermoid hepatocellular carcinoma cell), C-33A (human epidermoid cervical carcinoma cell), and HeLa (human epidermoid cervical adenocarcinoma cell) were incubated in Dulbecco’s modified Eagle’s medium (DMEM), which was purchased from Gibco (Grand Island, NY, United States). SiHa cells (human epidermoid cervical squamous cell carcinoma) were incubated in minimum essential medium (MEM, also from Gibco). CaSki (human epidermoid cervical carcinoma cell) and LO2 (human normal liver cell) were incubated in minimum essential medium (MEM, also from Gibco). All cells were maintained at 37°C in a humidified incubator with 5% carbon dioxide, and the media contained 10% fetal bovine serum (FBS, Corning, United States) and 1% penicillin–streptomycin antibiotic solution (Corning, United States). SiHa and CaSki were bought from the China Center for Type Culture Collection (CCTCC). The other five types of cancer cell lines were obtained from the Experiment Center of Medicine, Sinopharm Dongfeng Hospital, Hubei University of Medicine. The compounds were dissolved in dimethyl sulfoxide (DMSO, MP Biomedicals, United States), and cisplatin was purchased from Aladdin, Shanghai, China. The control (0 μM) group was treated with DMSO only in the same conditions, and the DMSO content in the medium was less than 0.1%.
# (§2) Cell viability was measured by a 3-(4,5-dimethylthiazol-2-yl)-2,5-diphenyltetrazolium bromide (MTT, MultiSciences, China) assay. The specific experimental steps referred to our previous research ([Zhu et al., 2020]). For each cell line, cells were digested and seeded in 96-well plates at a density of 1 × 10^3 cells/well. […] Then, the formed formazan crystals were dissolved in DMSO, and the plates were estimated in a […] microplate reader (BioTek Inc., Bio-Tek MQX200) at a wavelength of 490 nm. Optical density (OD) values were obtained, and the inhibition rate and IC50 of each compound on different cells were calculated by GraphPad Prism 8.0.1 software. […]
# HepG2 cells = test: Annexin V-FITC/PI flow cytometry apoptosis assay, HepG2; assay type: cell-based, human; conditions: 48 h; for total apoptosis rate: DMSO control 7.73 ± 2.18%
# Procedure: (§3) The effect of RPDPRH on apoptosis was performed using the Annexin V-FITC/PI Apoptosis kit (MultiSciences, China), following the manufacturer’s protocol. The cells were digested, dispersed, and plated into six-well plates with 2 × 10^4 cells/well and treated with RPDPRH (0, 6.25, 12.5, and 25 μM) at various concentrations for 48 h. Upon completion of the treatment, cells were harvested, washed with cool phosphate buffered solution (PBS, Gibco, United States) (0.01 M, pH=7.4), and re-suspended in a 500 μl binding buffer. Annexin V-FITC (5 μl) and PI (10 μl) were added into the cell suspension, and then, the suspension was incubated at room temperature away from light for 5 min. Cells were analyzed by using a flow cytometer (Agilent NovoCyte, China) immediately, and the results of the apoptosis were analyzed by FlowJo software.
# 7402 cells [1] = test: Annexin V-FITC/PI flow cytometry apoptosis assay, 7402; assay type: cell-based, human; conditions: 48 h; for total apoptosis rate: DMSO control 8.96 ± 3.05%
# Procedure: as §3
# 7402 cells [2] = test: MTT cell viability assay, 7402; assay type: cell-based; conditions: Homo sapiens, 48 h, read-out: Half inhibitory concentration (IC50), 7402
# Procedure: as §1, §2
# CaSki cells = test: MTT cell viability assay, CaSki; assay type: cell-based; conditions: Homo sapiens, Ca-Ski, 48 h, read-out: Half inhibitory concentration (IC50), CaSki
# Procedure: as §1, §2
# Bcl-2 = test: Western blot, Bcl-2 expression in 7402 cells; assay type: cell-based, human; conditions: 7402, 25 μM, 48 h, vs DMSO control, p < 0.01
# Procedure: The experimental steps of the Western blotting assay referred to Lin’s study ([Lin et al., 2020]). After treatment with different concentrations of RPDPRH (0, 6.25, 12.5, and 25 μM) for 48 h, hepatocarcinoma cells were lysed with an ice-cold RIPA protein lysis buffer (Beyotime, China). Total cell lysates were prepared with RIPA lysis buffer containing phosphatase inhibitors (Roche, China) and protease inhibitors (MedChemExpress, United States). Total cell lysates were centrifuged at 10,000 g for 10 min at 4°C to obtain the supernatant. The protein concentration was detected according to the BCA Protein Assay Kit (Beyotime, China). Then, 5× SDS loading buffer (Beyotime, China) was added to the supernatant and boiled at 100°C for 10 min. The obtained protein samples were stored at −80°C.
# The protein samples (20 μg) were resolved on 4% concentration glue and 12% separating glue and prepared according to the SDS-PAGE Gel Quick Preparation Kit procedure (Beyotime, China). After electrophoresis at 80 V for 1.5–2 h, the proteins were wet-transferred onto a polyvinylidene difluoride membrane (PVDF, Millipore) at 300 mA for 1–1.5 h. […]
# C-33A cells = test: MTT cell viability assay, C-33A; assay type: cell-based; conditions: Homo sapiens, 48 h, read-out: Half inhibitory concentration (IC50), C-33A
# Procedure: as §1, §2
smiles,measurement,setting,value
"O=C1/C(=C/c2ccc(Cl)cc2)CC(/C=C/c2ccc(Cl)cc2)(C(=O)NC2CCCCC2)N1c1ccc(F)cc1 (centres unmarked) [RPDPRH, (2E, 4E)-4-(4-chlorobenzylidene)-2-(4-chlorostyryl)-N-cyclohexyl-1-(4-fluorophenyl)-5-oxopyrrolidine-2-carboxamide]",melting point,,128 to 130 °C
same,IC50,SiHa cells,17.7 µM
same,early apoptotic cell (LR) rate,"HepG2 cells; HepG2, 6.25 μM",5.53%
same,late apoptotic (UR) rate,"HepG2 cells; HepG2, 6.25 μM",5.07%
same,total apoptosis rate,"HepG2 cells; HepG2, 6.25 μM",10.6 ± 1.49%
same,early apoptotic cell (LR) rate,"HepG2 cells; HepG2, 12.5 μM",14.90%
same,late apoptotic (UR) rate,"HepG2 cells; HepG2, 12.5 μM",21.00%
same,total apoptosis rate,"HepG2 cells; HepG2, 12.5 μM",35.90 ± 2.51%
same,early apoptotic cell (LR) rate,"HepG2 cells; HepG2, 25 μM",19.80%
same,late apoptotic (UR) rate,"HepG2 cells; HepG2, 25 μM",32.30%
same,total apoptosis rate,"HepG2 cells; HepG2, 25 μM",52.10 ± 4.49%
same,early apoptotic cell (LR) rate,"7402 cells [1]; 7402, 6.25 μM",4.37%
same,late apoptotic (UR) rate,"7402 cells [1]; 7402, 6.25 μM",9.34%
same,total apoptosis rate,"7402 cells [1]; 7402, 6.25 μM",13.71 ± 1.30%
same,early apoptotic cell (LR) rate,"7402 cells [1]; 7402, 12.5 μM",8.53%
same,late apoptotic (UR) rate,"7402 cells [1]; 7402, 12.5 μM",15.30%
same,early apoptotic cell (LR) rate,"7402 cells [1]; 7402, 25 μM",11.40%
same,late apoptotic (UR) rate,"7402 cells [1]; 7402, 25 μM",24.60%
same,total apoptosis rate,"7402 cells [1]; 7402, 25 μM",36.00 ± 2.67%
same,IC50,7402 cells [2],22.4 µM
same,IC50,CaSki cells,6.42 µM
same,expression of anti-apoptotic protein Bcl-2,Bcl-2,decrease
same,IC50,C-33A cells,4.66 µM
